Biological target: T1, ADP-ribosyl cyclase/cyclic ADP-ribose hydrolase 1 (Homo sapiens, UniProt P28907)
T1 sequence (P28907 whole entry): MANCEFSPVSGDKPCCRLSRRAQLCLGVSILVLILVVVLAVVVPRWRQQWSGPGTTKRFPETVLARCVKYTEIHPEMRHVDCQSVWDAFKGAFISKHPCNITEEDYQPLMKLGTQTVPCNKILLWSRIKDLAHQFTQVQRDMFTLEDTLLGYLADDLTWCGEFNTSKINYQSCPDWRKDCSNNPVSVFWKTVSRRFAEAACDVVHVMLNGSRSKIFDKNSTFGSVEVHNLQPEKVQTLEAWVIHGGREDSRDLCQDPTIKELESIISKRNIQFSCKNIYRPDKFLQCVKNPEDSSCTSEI
Assay: Inhibition of human CD38 using 20 uM 1, N6-etheno NAD+ as substrate by continuous fluorimetric method

| IC50 | Compound |
| --- | --- |
| 21.8 µM | Oc1cc(O)c2cc(O)c(-c3ccc(O)c(O)c3)[o+]c2c1 [CYANIDIN] |
| 14.6 µM | Oc1cc(O)c2cc(O)c(-c3cc(O)c(O)c(O)c3)[o+]c2c1 [DELPHINIDIN] |
| 32.1 µM | COc1ccc(-c2ccc3c(O)cc(O)cc3[o+]2)cc1O [DIOSMETINIDIN] |
| 70.3 µM | Oc1ccc2cc(O)c(-c3ccc(O)c(O)c3)[o+]c2c1 [FISETINIDIN] |
| 6.3 µM | OC[C@H]1O[C@@H](Oc2cc3c(O)cc(O)cc3[o+]c2-c2ccc(O)c(O)c2)[C@H](O)[C@@H](O)[C@@H]1O [KUROMANIN] |
| 6 µM | Oc1cc(O)c2ccc(-c3ccc(O)c(O)c3)[o+]c2c1 [LUTEOLINIDIN] |
| 16.3 µM | Oc1ccc(-c2[o+]c3cc(O)cc(O)c3cc2O)cc1 [PELARGONIDIN] |
| 39.2 µM | COc1cc(-c2[o+]c3cc(O)cc(O)c3cc2O)cc(O)c1O [PETUNIDIN] |

More lines, now with the values behind:

| Compound | IC50 |
| --- | --- |
| Oc1ccc(-c2[o+]c3cc(O)c(O)c(O)c3cc2O)cc1O | 14.2 µM |
| Oc1cc(O)c2c(c1)OC(c1ccc(O)c(O)c1)C(O)C2 (racemic) [CATECHIN] | > 100 µM |
| O=c1cc(-c2ccc(O)c(O)c2)oc2cc(O)cc(O)c12 [LUTEOLIN] | 8.2 µM |
| COc1cc(-c2[o+]c3cc(O)cc(O)c3cc2O)cc(OC)c1O [MALVIDIN] | 17 µM |
| O=c1c(O)c(-c2cc(O)c(O)c(O)c2)oc2cc(O)cc(O)c12 [MYRICETIN] | 24.8 µM |
| Oc1cc(O)cc(/C=C/c2ccc(O)c(O)c2)c1 [PICEATANNOL] | > 100 µM |
| O=c1c(O)c(-c2ccc(O)c(O)c2)oc2cc(O)c(O)c(O)c12 [QUERCETAGETIN] | 48.6 µM |
| O=c1c(O)c(-c2ccc(O)c(O)c2)oc2cc(O)cc(O)c12 [QUERCETIN] | 37.9 µM |
| Oc1ccc(/C=C/c2cc(O)cc(O)c2)cc1 [RESVERATROL] | > 100 µM |
| O=c1c(O)c(-c2cc(O)c(O)c(O)c2)oc2cc(O)ccc12 [ROBINETIN] | 37.9 µM |
